Values quoted from earlier work, collected in US6617125B2, “Compositions for enhanced catalyzed reporter deposition” (PerkinElmer Life Sciences, Inc., priority 2001, dated 2003).

Columns and labels:
HRP [1] = biological target: T1, HRP (Armoracia rusticana, UniProt P00433)
T1 sequence (P00433 31-338 limits assumed): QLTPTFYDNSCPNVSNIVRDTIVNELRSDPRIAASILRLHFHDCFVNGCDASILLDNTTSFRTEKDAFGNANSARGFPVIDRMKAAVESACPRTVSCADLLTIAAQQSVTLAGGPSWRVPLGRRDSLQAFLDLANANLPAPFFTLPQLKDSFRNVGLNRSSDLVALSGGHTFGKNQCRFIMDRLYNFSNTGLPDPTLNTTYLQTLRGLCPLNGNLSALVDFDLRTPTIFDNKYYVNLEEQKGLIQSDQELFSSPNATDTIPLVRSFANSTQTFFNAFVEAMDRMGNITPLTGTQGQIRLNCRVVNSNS

HRP [2] = details: substrate guaiacol; Whitaker and Tappel 1962

Which “effect on the oxidation of 4-chloro-1-naphthol” value (HRP [1]; substrate 4-chloro-1-naphthol, de Jong et al. 1985) does the source give for `c1c[nH]cn1` [imidazole] here?
The value was “no effect”.

And the “enhancement of the oxidation of p-phenylenediamine-pyrocatechol” value (HRP [1]; substrate combination p-phenylenediamine-pyrocatechol, de Jong et al. 1985)?
The value was “two”.

And the “enhancement of the oxidation of diaminobenzidine” value (HRP [1]; substrate diaminobenzidine, de Jong et al. 1985)?
The value was “approximately four”.

And the “effect on substrates which form covalently depositable products” value (HRP [1]; substrates which form covalently depositable products)?
Its value is “no effect”.

Which “enhancement of the oxidation of guaiacol” value (HRP [2]) does the source give for `[Cl-].[Na+]` [NaCl] here?
The value was “enhance”.

For `[Cl-].[K+]` [KCl], which “enhancement of the oxidation of guaiacol” value (HRP [2]) is on record?
The value was “enhance”.

With `O=S(=O)([O-])[O-].[Na+].[Na+]` [Na2SO4] as the molecule, how does the “enhancement of the oxidation of guaiacol” value (HRP [2]) read?
The value was “enhance”.
